This note sets out measurements from patent US9682141B2, “Combination of kinase inhibitors and uses thereof” (INTELLIKINE LLC, priority 2011, dated 2017).

Type in all cases: biochemical
One assay concerns the target PI3K β (Homo sapiens (Human), UniProt P42338). The experiment in a line: PI 3-Kinase (human) HTRF assay, p110β/p85α. Background: In TR-FRET formats the signal depends on donor and acceptor labels being close together.
The target in the next assay is PI3K γ (Homo sapiens (Human), UniProt P48736). The experiment in a line: PI 3-Kinase (human) HTRF assay, p110γ. The conditions noted are these: read-out: PI3K γ IC50.
The next assay has as its target mTORC (Homo sapiens (Human), UniProt P42345). The experiment in a line: mTOR inhibition assay (radiometric or LanthaScreen TR-FRET).
A further assay concerns the target PI3K δ (Homo sapiens (Human), UniProt O00329). The experiment in a line: PI 3-Kinase (human) HTRF assay, p110δ/p85α.
A further assay has as its target PI3K α (Homo sapiens (Human), UniProt P42336). The experiment in a line: PI 3-Kinase (human) HTRF assay, p110α/p85α.

A value given as a limit tells only on which side of the number the result lay.

Chain of PI3K γ (P48736 whole entry): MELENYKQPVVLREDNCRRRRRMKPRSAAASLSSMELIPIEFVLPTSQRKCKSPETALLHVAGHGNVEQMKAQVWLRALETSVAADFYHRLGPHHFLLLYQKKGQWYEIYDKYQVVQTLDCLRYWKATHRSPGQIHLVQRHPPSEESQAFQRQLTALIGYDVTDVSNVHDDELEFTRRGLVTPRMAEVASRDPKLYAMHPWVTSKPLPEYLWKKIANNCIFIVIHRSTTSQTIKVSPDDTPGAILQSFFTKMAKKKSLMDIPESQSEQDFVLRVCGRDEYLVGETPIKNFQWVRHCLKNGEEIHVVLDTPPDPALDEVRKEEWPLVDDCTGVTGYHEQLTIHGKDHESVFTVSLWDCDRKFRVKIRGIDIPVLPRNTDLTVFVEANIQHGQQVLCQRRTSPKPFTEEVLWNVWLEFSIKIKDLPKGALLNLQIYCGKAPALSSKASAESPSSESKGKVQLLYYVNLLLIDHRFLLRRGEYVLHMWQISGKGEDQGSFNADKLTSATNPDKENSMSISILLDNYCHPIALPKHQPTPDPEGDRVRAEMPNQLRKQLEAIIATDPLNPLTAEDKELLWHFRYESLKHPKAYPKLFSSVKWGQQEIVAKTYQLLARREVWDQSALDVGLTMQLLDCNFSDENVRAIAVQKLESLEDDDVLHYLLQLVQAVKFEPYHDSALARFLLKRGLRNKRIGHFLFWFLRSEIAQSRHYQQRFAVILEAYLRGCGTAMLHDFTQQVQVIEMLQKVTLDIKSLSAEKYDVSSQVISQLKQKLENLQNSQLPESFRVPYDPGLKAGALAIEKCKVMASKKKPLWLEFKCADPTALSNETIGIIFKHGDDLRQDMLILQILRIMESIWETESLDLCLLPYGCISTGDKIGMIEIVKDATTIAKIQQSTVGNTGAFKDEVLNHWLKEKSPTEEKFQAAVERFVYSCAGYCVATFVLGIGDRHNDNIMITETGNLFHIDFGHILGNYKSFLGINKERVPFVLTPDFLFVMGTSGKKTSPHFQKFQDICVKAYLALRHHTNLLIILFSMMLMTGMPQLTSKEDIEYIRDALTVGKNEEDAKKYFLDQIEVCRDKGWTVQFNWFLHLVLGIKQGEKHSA
Chain of PI3K α (P42336 whole entry): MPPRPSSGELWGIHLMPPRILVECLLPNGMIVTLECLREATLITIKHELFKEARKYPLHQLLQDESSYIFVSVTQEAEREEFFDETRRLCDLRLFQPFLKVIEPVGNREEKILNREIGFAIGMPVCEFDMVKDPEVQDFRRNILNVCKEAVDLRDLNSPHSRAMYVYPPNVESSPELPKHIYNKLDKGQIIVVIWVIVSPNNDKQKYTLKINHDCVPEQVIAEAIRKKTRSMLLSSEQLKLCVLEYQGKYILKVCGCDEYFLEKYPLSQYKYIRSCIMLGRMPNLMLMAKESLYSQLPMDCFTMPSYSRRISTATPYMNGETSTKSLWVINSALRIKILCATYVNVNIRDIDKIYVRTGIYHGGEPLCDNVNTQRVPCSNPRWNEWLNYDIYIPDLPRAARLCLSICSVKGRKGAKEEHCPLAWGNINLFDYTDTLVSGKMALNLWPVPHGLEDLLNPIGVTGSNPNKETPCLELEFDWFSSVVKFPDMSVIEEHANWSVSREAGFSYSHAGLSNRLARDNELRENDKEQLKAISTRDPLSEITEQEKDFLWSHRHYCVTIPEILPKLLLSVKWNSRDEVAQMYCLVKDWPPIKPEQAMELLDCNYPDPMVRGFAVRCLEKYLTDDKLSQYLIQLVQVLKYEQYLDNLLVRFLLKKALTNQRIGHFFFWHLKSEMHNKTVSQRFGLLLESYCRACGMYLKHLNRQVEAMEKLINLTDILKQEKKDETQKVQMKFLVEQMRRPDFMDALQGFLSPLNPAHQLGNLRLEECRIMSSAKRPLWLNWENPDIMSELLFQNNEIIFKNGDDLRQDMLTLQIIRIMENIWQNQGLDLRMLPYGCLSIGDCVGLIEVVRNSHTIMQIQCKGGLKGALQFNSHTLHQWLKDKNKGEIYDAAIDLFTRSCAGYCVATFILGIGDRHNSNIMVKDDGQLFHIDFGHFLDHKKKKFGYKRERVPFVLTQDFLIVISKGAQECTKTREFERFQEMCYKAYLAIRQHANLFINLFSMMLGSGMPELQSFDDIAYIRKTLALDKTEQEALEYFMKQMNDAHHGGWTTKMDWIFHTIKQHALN
Chain of PI3K α (P27986 whole entry partner): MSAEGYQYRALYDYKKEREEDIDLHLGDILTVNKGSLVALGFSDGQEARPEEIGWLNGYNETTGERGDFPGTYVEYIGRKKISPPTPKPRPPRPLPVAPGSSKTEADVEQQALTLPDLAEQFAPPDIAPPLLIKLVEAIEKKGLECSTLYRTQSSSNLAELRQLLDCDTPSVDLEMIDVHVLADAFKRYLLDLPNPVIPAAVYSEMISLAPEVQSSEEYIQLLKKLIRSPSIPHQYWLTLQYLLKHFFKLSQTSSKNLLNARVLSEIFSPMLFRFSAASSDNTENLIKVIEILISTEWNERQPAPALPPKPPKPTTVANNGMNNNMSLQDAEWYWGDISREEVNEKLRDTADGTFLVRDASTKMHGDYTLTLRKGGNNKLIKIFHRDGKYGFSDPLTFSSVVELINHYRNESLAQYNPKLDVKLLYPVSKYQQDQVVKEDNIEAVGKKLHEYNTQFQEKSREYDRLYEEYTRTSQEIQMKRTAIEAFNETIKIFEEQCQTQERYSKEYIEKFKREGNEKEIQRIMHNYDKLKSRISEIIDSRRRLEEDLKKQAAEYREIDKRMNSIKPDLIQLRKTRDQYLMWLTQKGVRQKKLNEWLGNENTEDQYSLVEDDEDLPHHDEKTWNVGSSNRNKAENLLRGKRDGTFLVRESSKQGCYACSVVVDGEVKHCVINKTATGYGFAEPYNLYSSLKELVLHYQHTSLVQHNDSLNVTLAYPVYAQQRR
Chain of PI3K β (P42338 whole entry): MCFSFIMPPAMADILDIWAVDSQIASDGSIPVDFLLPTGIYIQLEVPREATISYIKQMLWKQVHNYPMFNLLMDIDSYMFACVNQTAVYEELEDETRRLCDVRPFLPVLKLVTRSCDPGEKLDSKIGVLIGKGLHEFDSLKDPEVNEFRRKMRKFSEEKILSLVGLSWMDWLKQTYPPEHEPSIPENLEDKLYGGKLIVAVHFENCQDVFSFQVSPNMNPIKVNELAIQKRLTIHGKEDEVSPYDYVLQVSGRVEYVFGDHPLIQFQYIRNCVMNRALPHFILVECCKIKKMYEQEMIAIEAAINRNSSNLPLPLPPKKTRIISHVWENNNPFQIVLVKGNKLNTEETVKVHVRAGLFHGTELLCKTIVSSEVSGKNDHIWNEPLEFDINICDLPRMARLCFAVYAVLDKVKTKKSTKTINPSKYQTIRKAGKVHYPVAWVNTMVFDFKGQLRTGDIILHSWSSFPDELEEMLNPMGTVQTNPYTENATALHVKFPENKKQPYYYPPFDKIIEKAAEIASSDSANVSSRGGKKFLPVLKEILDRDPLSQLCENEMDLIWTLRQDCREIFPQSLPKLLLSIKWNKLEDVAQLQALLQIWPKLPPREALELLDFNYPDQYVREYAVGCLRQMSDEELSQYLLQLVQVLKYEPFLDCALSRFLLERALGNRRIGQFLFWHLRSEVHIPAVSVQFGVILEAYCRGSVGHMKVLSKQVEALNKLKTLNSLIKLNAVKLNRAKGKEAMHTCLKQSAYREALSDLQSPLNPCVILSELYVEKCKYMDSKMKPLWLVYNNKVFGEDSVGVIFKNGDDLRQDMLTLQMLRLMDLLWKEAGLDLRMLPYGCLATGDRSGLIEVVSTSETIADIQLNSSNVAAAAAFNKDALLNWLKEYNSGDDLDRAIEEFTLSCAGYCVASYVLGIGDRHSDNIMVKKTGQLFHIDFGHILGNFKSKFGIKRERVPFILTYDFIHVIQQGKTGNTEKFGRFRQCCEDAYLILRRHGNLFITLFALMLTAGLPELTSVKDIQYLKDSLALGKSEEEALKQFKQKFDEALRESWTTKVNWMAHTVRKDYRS
Chain of PI3K β (P27986 whole entry partner): as the sequence (P27986 whole entry partner) above
Chain of PI3K δ (O00329 whole entry): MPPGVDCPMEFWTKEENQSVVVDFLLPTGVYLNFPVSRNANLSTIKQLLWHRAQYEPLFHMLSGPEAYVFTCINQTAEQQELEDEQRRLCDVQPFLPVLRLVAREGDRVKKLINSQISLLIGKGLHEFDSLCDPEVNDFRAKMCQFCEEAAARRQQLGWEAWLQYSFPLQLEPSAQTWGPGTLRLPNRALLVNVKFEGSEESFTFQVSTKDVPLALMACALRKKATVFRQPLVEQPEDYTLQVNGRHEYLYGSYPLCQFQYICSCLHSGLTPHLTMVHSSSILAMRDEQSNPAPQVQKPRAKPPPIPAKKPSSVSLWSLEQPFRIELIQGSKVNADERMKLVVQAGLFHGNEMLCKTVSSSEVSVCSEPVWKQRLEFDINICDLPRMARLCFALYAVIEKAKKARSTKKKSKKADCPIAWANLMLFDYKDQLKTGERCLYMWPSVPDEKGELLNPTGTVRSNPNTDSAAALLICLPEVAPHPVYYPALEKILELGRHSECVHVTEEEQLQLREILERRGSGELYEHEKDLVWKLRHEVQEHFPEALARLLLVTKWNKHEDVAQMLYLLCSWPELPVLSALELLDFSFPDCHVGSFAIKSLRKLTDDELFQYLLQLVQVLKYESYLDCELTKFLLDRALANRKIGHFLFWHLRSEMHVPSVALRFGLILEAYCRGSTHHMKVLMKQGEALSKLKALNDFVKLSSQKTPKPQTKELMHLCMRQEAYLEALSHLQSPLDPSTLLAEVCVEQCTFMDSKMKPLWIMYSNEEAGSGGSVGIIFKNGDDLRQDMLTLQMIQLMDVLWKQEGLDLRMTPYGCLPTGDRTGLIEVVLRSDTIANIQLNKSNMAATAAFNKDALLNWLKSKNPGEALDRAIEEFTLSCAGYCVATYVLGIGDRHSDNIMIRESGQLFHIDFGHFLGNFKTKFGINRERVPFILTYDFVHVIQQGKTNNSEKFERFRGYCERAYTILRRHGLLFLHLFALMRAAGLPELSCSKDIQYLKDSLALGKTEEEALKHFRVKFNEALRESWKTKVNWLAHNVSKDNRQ
Chain of PI3K δ (P27986 whole entry partner): as the sequence (P27986 whole entry partner) above
Experimental for mTORC: The compounds described herein can be tested against recombinant mTOR (Invitrogen) in an assay containing 50 mM HEPES, pH 7.5, 1 mM EGTA, 10 mM MgCl2, 2.5 mM, 0.01% Tween, 10 μM ATP (2.5 μCi of μ-32P-ATP), and 3 μg/mL BSA. Rat recombinant PHAS-1/4EBP1 (Calbiochem; 2 mg/mL) is used as a substrate. Reactions are terminated by spotting onto nitrocellulose, which is washed with 1M NaCl/1% phosphoric acid (approximately 6 times, 5-10 minutes each). Sheets are dried and the transferred radioactivity quantitated by phosphorimaging.
For instance, one can use Invitrogen's LanthaScreen™ Kinase assay to test the inhibitors of mTOR disclosed herein. This assay is a time resolved FRET platform that measures the phosphorylation of GFP labeled 4EBP1 by mTOR kinase. The kinase reaction is performed in a white 384 well microtitre plate. The total reaction volume is 20 ul per well and the reaction buffer composition is 50 mM HEPES pH7.5, 0.01% Polysorbate 20, 1 mM EGTA, 10 mM MnCl2, and 2 mM DTT. In the first step, each well receives 2 ul of test compound in 20% dimethylsulphoxide resulting in a 2% DMSO final concentration. Next, 8 ul of mTOR diluted in reaction buffer is added per well for a 60 ng/ml final concentration. To start the reaction, 10 ul of an ATP/GFP-4EBP1 mixture (diluted in reaction buffer) is added per well for a final concentration of 10 μM ATP and 0.5 μM GFP-4EBP1. The plate is sealed and incubated for 1 hour at room temperature. […] The plate is sealed, incubated for 1 hour at room temperature, and then read on a plate reader set up for LanthaScreen™ TR-FRET. Data is analyzed and IC50s are generated using GraphPad Prism 5.

On to `Nc1nc2cc(-c3ccc4ncc(C(=O)N[C@H]5CC[C@H](O)CC5)n4c3)ccc2o1`, for which the IC50 was less than 10000 nM on PI3K β, less than 100 nM at PI3K γ and more than 10000 nM at mTORC.
For the compound `Nc1nc2cc(-c3ccc4ncc(N5CCNC(=O)C5)nc4n3)ccc2o1`, the 50% inhibitory concentration (IC50) on PI3K δ is less than 10000 nM; on PI3K α, less than 100 nM; on PI3K β, less than 1000 nM; at PI3K γ, less than 100 nM.
With `CC1CN(c2cnc3ccc(-c4ccc5oc(N)nc5c4)cc3n2)CC(C)N1` (centres unmarked), the IC50 at PI3K δ, against PI3K α, against PI3K β and on PI3K γ was less than 1000 nM each time.
Turning to `Nc1nc2cc(-c3cnc4ccc(N5C6CCC5COC6)nc4c3)ccc2o1`, the IC50 at PI3K δ is more than 10000 nM; on PI3K α, less than 10000 nM; at PI3K β it was more than 10000 nM; at PI3K γ, less than 10000 nM.
For `CS(=O)(=O)N1CCC(Nc2ncnc3ccc(-c4ccc5oc(N)nc5c4)cc23)CC1`, the IC50 against PI3K δ is less than 100 nM; against PI3K α, less than 100 nM; against PI3K β, less than 1000 nM; at PI3K γ, less than 100 nM.
On to `CCOC(=O)N1CC=C(c2cnc3ccc(-c4ccc5oc(N)nc5c4)nc3n2)CC1`, for which the concentration for half-maximal inhibition (IC50) on PI3K δ was less than 10000 nM; at PI3K α it was less than 100 nM; at PI3K β, less than 10000 nM; on PI3K γ it was less than 100 nM.
Turning to `Nc1nc2cc(-c3ccc4ncn(CCO)c(=O)c4c3)ccc2o1`, the 50% inhibitory concentration (IC50) was more than 10000 nM on PI3K δ, less than 100 nM against PI3K α, less than 10000 nM at PI3K β and less than 1000 nM on PI3K γ.
In the same order, the values of `Nc1nc2cc(-c3ccc4ncc(N5CCOCC5)nc4c3)ccc2s1` are more than 10000 nM, less than 100 nM, less than 1000 nM and less than 1000 nM.
For `Nc1nc2cc(-c3ccc4ncc(-c5ccc(N6CCOCC6)nc5)n4c3)ccc2o1` [Compound 51], the concentration for half-maximal inhibition (IC50) against PI3K δ is less than 1000 nM; against PI3K α, less than 100 nM; at PI3K β, less than 1000 nM; at PI3K γ, less than 1000 nM.
For `C[C@H]1CN(c2cnc3ccc(-c4ccc5oc(N)nc5c4)nc3n2)CCN1`, the IC50 on PI3K δ was less than 10000 nM; against PI3K α, less than 1000 nM; on PI3K β, less than 100 nM; at PI3K γ, less than 10000 nM.
`N#Cc1cnc2ccc(-c3ccc4oc(N)nc4c3)cc2c1Cl`: on mTORC, the IC50 was less than 1000 nM.
`Nc1nc2cc(-c3ccc4ncc(C(=O)NCCO)n4c3)ccc2o1`: the IC50 was less than 1000 nM against PI3K δ, less than 100 nM at PI3K α, less than 1000 nM against PI3K β and less than 100 nM at PI3K γ.
Take `CC(=O)NC1CCN(C(=O)c2cnc3ccc(-c4ccc5oc(N)nc5c4)cn23)CC1`: the IC50 was less than 10000 nM at PI3K δ, less than 1000 nM against PI3K α, less than 10000 nM on PI3K β and less than 10000 nM at PI3K γ.
Regarding `Nc1nc2ccc(-c3ccc4ncn(C5CCOCC5)c(=O)c4c3)cc2o1`, the IC50 was more than 10000 nM on PI3K δ, less than 10000 nM at PI3K α, more than 10000 nM at PI3K β and more than 10000 nM on PI3K γ.
For the compound `Cn1cc(-c2cnc3ccc(-c4ccc5oc(N)nc5c4)cc3n2)cn1`, the 50% inhibitory concentration (IC50) is less than 10000 nM against PI3K δ, less than 100 nM on PI3K α, less than 1000 nM on PI3K β and less than 100 nM at PI3K γ.
In the case of `CN1CCC(N(C)c2ncnc3ccc(-c4ccc5oc(N)nc5c4)cc23)CC1`, the half-maximal inhibitory concentration (IC50) was less than 1000 nM against PI3K δ, less than 100 nM at PI3K α, less than 100 nM at PI3K β and less than 100 nM on PI3K γ.
With `CS(=O)(=O)CCN1CCC(Nc2cnc3ccc(-c4ccc5oc(N)nc5c4)cc3n2)CC1`, the IC50 on PI3K δ was less than 1000 nM; against PI3K α it was less than 100 nM; at PI3K β, less than 10000 nM; on PI3K γ it was less than 100 nM.
In the case of `Nc1nsc2ccc(-c3ccc4nccc(-c5ccncc5)c4c3)cc12` [Compound 12], the 50% inhibitory concentration (IC50) at PI3K δ, against PI3K α, against PI3K β and at PI3K γ was more than 10000 nM in each case.
Consider `CC(C)N1CCN(C2CN(c3cnc4ccc(-c5ccc6oc(N)nc6c5)nc4n3)C2)CC1`, for which the half-inhibitory concentration (IC50) on PI3K δ is more than 10000 nM; on PI3K α it was less than 10000 nM; against PI3K β, more than 10000 nM; on PI3K γ it was more than 10000 nM.
`Nc1nc2cc(-c3ccc4ncc(-c5cccnc5)cc4n3)ccc2o1`: the 50% inhibitory concentration (IC50) is less than 10000 nM at PI3K δ, less than 100 nM against PI3K α, less than 10000 nM against PI3K β and less than 100 nM at PI3K γ.
With `Nc1nc2cc(-c3ccc4ncnc(NC5CCN(C(=O)C6CC6)CC5)c4c3)ccc2o1`, the IC50 on PI3K δ is less than 100 nM; on PI3K α, less than 100 nM; against PI3K β, less than 10000 nM; on PI3K γ, less than 100 nM.
For the compound `CN1CCN(C(=O)c2cnc3ccc(-c4ccc5nc(N)sc5c4)cn23)CC1`, the half-inhibitory concentration (IC50) at PI3K δ is more than 10000 nM; at PI3K α it was less than 10000 nM; against PI3K β it was less than 10000 nM; at PI3K γ it was more than 10000 nM.
In the case of `C[C@@H](N)C(=O)N1CCN(c2cnc3ccc(-c4ccc5oc(N)nc5c4)nc3n2)CC1`, the 50% inhibitory concentration (IC50) was less than 10000 nM against PI3K δ, less than 100 nM against PI3K α, less than 10000 nM at PI3K β and less than 1000 nM at PI3K γ.
On to `CN1CCN(c2cnc3ccc(-c4ccc5sc(N)nc5c4)cc3n2)CC1`, for which the IC50 is more than 10000 nM at PI3K δ, less than 1000 nM against PI3K α, less than 100 nM against PI3K β and less than 10000 nM on PI3K γ.
In the same order, the values of `Nc1nc2cc(-c3ccc4ncc(N5CC6CCC(C5)O6)cc4n3)ccc2o1` are more than 10000 nM, less than 100 nM, more than 10000 nM and less than 100 nM.
Take `CN1CCN(C(=O)c2cnc3ccc(-c4ccc5sc(N)nc5c4)cn23)CC1`: the half-maximal inhibitory concentration (IC50) on PI3K δ is more than 10000 nM; at PI3K α, less than 1000 nM; at PI3K β, less than 10000 nM; on PI3K γ, more than 10000 nM.
Consider `Nc1nc2cc(-c3ccc4ncc(C(=O)N5CCOCC5)n4n3)ccc2o1`, for which the IC50 at PI3K δ was more than 10000 nM; against PI3K α, less than 1000 nM; at PI3K β, less than 10000 nM; at PI3K γ, less than 1000 nM.
Turning to `CCNC(=O)c1cnc2ccc(-c3ccc4oc(N)nc4c3)cn12`, the IC50 at PI3K δ was less than 1000 nM; against PI3K α, less than 100 nM; at PI3K β it was less than 1000 nM; on PI3K γ, less than 100 nM.
Take `Nc1nc2cc(-c3cnc4ccc(N5CCOCC5)nc4c3)ccc2o1`: the IC50 on PI3K δ was more than 10000 nM; on PI3K α, less than 10000 nM; at PI3K β, more than 10000 nM; at PI3K γ, less than 10000 nM.
On to `Nc1nc2cc(-c3ccc4ncc(-c5cccnc5)n4n3)ccc2o1`, for which the half-inhibitory concentration (IC50) against PI3K δ, on PI3K α, against PI3K β and on PI3K γ was less than 100 nM each time.
Regarding `Cn1c(N2CCOCC2)nc2cc(-c3ccc4oc(N)nc4c3)ccc2c1=O`, the IC50 is more than 10000 nM on PI3K δ, less than 1000 nM against PI3K α, more than 10000 nM against PI3K β and more than 10000 nM at PI3K γ.
In the case of `CC(N)C(=O)N1CCN(c2cnc3ccc(-c4ccc5oc(N)nc5c4)cc3n2)CC1` (centres unmarked), the concentration for half-maximal inhibition (IC50) is less than 1000 nM at PI3K δ, less than 100 nM against PI3K α, less than 1000 nM at PI3K β and less than 10000 nM at PI3K γ.
Take `Nc1nc2cc(-c3ccc4ncc(-c5cn[nH]c5)nc4c3)ccc2o1`: the IC50 is less than 1000 nM at PI3K δ, less than 100 nM on PI3K α, less than 1000 nM at PI3K β and less than 100 nM at PI3K γ.
Turning to `CC1CN(c2cnc3ccc(-c4ccc5oc(N)nc5c4)cc3n2)CCO1` (centres unmarked), the IC50 against PI3K δ was less than 10000 nM; at PI3K α, less than 100 nM; on PI3K β, less than 1000 nM; on PI3K γ, less than 100 nM.
Turning to `Nc1nc2cc(-c3ccc4ncc(N5CCC(O)CC5)cc4n3)ccc2o1`, the IC50 at PI3K δ is less than 10000 nM; against PI3K α, less than 100 nM; against PI3K β, less than 10000 nM; at PI3K γ it was less than 1000 nM.
For `C[C@H](N)C(=O)N1CCN(c2cnc3ccc(-c4ccc5oc(N)nc5c4)nc3n2)CC1`, the IC50 on PI3K δ, against PI3K α, on PI3K β and on PI3K γ was less than 100 nM in each case.
As to `Nc1nc2cc(-c3ccc4ncc(N5CC(N6CCNCC6)C5)nc4n3)ccc2o1`, the IC50 against PI3K δ was more than 10000 nM; against PI3K α, less than 1000 nM; against PI3K β, more than 10000 nM; at PI3K γ, more than 10000 nM.
For the compound `Nc1nc2cc(-c3ccc4ncc(N5CC6CCC(C5)O6)nc4n3)ccc2o1`, the concentration for half-maximal inhibition (IC50) at PI3K δ was more than 10000 nM; on PI3K α it was less than 100 nM; against PI3K β, more than 10000 nM; at PI3K γ it was less than 1000 nM.
On to `CCn1cnc2ccc(-c3ccc4oc(N)nc4c3)cc2c1=O`, for which the IC50 on PI3K δ is less than 10000 nM; at PI3K α, less than 100 nM; at PI3K β, less than 10000 nM; at PI3K γ it was less than 100 nM.
Turning to `CN1CCCN(c2cnc3ccc(-c4ccc5oc(N)nc5c4)cc3n2)CC1`, the concentration for half-maximal inhibition (IC50) is more than 10000 nM on PI3K δ, less than 1000 nM against PI3K α, less than 1000 nM against PI3K β and less than 10000 nM on PI3K γ.
Take `CN(C)C1CCN(c2cnc3ccc(-c4ccc5oc(N)nc5c4)cc3n2)CC1`: the concentration for half-maximal inhibition (IC50) against PI3K δ was less than 100 nM; at PI3K α it was less than 100 nM; on PI3K β, less than 100 nM; at PI3K γ it was less than 1000 nM.
For the compound `CC1CN(C(=O)c2cnc3ccc(-c4ccc5oc(N)nc5c4)cn23)CC(C)N1` (centres unmarked), the IC50 against PI3K δ was more than 10000 nM; on PI3K α, less than 10000 nM; at PI3K β, more than 10000 nM; at PI3K γ it was more than 10000 nM.
As to `Nc1nc2cc(-c3ccc4ncc(N5CCN(CC6CC6)CC5)nc4c3)ccc2o1`, the IC50 is less than 1000 nM against PI3K δ, less than 100 nM against PI3K α, less than 100 nM against PI3K β and less than 1000 nM at PI3K γ.
As for `CN1CCN(c2ccc3ncc(-c4ccc5oc(N)nc5c4)cc3n2)CC1`, the half-inhibitory concentration (IC50) against PI3K δ was more than 10000 nM; against PI3K α, less than 10000 nM; against PI3K β it was less than 10000 nM; at PI3K γ it was more than 10000 nM.
Take `Nc1nc2cc(-c3cnc4ncc(-c5ccncc5)n4c3)ccc2o1`: the concentration for half-maximal inhibition (IC50) against PI3K δ, against PI3K α, against PI3K β and on PI3K γ was more than 10000 nM each time.

Broadly, the IC50 is the point on the concentration scale where inhibition reaches its midpoint.
